Columns and labels:
[1] = Stability of (Z)-Endoxifen in acetone (HPLC peak table over time); assay type: physicochemical; conditions: for E-form, RT 14.58, RRT 0.96 / HPLC peak RT 13.84, RRT 0.91 / HPLC peak RT 20.32, RRT 1.34 / HPLC peak RT 20.51, RRT 1.35 / HPLC peak RT 21.68, RRT 1.43 / HPLC peak RT 22.88, RRT 1.51 / HPLC peak RT 27.15, RRT 1.79 / HPLC peak RT 27.21, RRT 1.80 / HPLC peak RT 27.45, RRT 1.81 / HPLC peak RT 27.88, RRT 1.84 / HPLC peak RT 4.37, RRT 0.28 / Z-form, RT 15.13, RRT 1.00: acetone at reflux (56° C.); for HPLC peak RT 4.37, RRT 0.28 / Z-form, RT 15.13, RRT 1.00 / Z-form, RT 16.25, RRT 1.00: in % (unit assumed); for E-form, RT 15.40, RRT 0.95 / HPLC peak RT 3.14, RRT 0.19 / HPLC peak RT 4.25, RRT 0.26 / HPLC peak RT 14.68, RRT 0.90 / HPLC peak RT 17.69, RRT 1.09 / HPLC peak RT 20.47, RRT 1.26 / HPLC peak RT 20.80, RRT 1.28 / HPLC peak RT 21.56, RRT 1.33 / HPLC peak RT 21.83, RRT 1.34 / HPLC peak RT 22.68, RRT 1.39 / HPLC peak RT 22.76, RRT 1.40 / Z-form, RT 16.25, RRT 1.00: acetone, 40° C.
[2] = Competitive slurries of (Z)-endoxifen polymorphs (XRPD); assay type: physicochemical; conditions: slurries of Forms I, IV and VII in various solvents, 3 days at room temperature or 24 hours at high temperature
Method: This example covers conversions of (Z)-endoxifen polymorphs in solvent slurries. Slurries of Forms I and VII were generated with Forms I, IV, and VII in various solvents, and incubated for either 3 days at room temperature or for 24 hours at high temperature. Following these incubations, polymorphs were collected from the slurries and characterized by XRPD.

- E-form, RT 14.58, RRT 0.96 ([1]; 3 hr): 0.54%
- HPLC peak RT 13.84, RRT 0.91 ([1]; 3 hr): 0.05%
- HPLC peak RT 20.32, RRT 1.34 ([1]; 3 hr): 0.37%
- HPLC peak RT 20.51, RRT 1.35 ([1]; 3 hr): 0.06%
- HPLC peak RT 21.68, RRT 1.43 ([1]; 3 hr): 0.16%
- HPLC peak RT 22.88, RRT 1.51 ([1]; 3 hr): 0.13%
- HPLC peak RT 27.15, RRT 1.79 ([1]; 3 hr): 0.03%
- HPLC peak RT 27.21, RRT 1.80 ([1]; 3 hr): 0.05%
- HPLC peak RT 27.45, RRT 1.81 ([1]; 3 hr): 0.24%
- HPLC peak RT 27.88, RRT 1.84 ([1]; 3 hr): 0.04%
- HPLC peak RT 4.37, RRT 0.28 ([1]; 3 hr): 0.96
- Z-form, RT 15.13, RRT 1.00 ([1]; 3 hr): 96.67
- E-form, RT 14.58, RRT 0.96 ([1]; 19 hr): 1.01%
- HPLC peak RT 13.84, RRT 0.91 ([1]; 19 hr): 0.04%
- HPLC peak RT 20.32, RRT 1.34 ([1]; 19 hr): 0.12%
- HPLC peak RT 20.51, RRT 1.35 ([1]; 19 hr): 0.04%
- HPLC peak RT 21.68, RRT 1.43 ([1]; 19 hr): 0.14%
- HPLC peak RT 22.88, RRT 1.51 ([1]; 19 hr): 0.09%
- HPLC peak RT 27.15, RRT 1.79 ([1]; 19 hr): 0.02%
- HPLC peak RT 27.21, RRT 1.80 ([1]; 19 hr): 0.04%
- HPLC peak RT 27.45, RRT 1.81 ([1]; 19 hr): 0.22%
- HPLC peak RT 27.88, RRT 1.84 ([1]; 19 hr): 0.04%
- HPLC peak RT 4.37, RRT 0.28 ([1]; 19 hr): 5.74
- Z-form, RT 15.13, RRT 1.00 ([1]; 19 hr): 91.92
- E-form, RT 14.58, RRT 0.96 ([1]; 27 hr): 1.53%
- HPLC peak RT 13.84, RRT 0.91 ([1]; 27 hr): 0.04%
- HPLC peak RT 20.32, RRT 1.34 ([1]; 27 hr): 0.09%
- HPLC peak RT 20.51, RRT 1.35 ([1]; 27 hr): 0.1%
- HPLC peak RT 21.68, RRT 1.43 ([1]; 27 hr): 0.15%
- HPLC peak RT 22.88, RRT 1.51 ([1]; 27 hr): 0.06%
- HPLC peak RT 27.15, RRT 1.79 ([1]; 27 hr): 0.03%
- HPLC peak RT 27.21, RRT 1.80 ([1]; 27 hr): 0.04%
- HPLC peak RT 27.45, RRT 1.81 ([1]; 27 hr): 0.22%
- HPLC peak RT 27.88, RRT 1.84 ([1]; 27 hr): 0.04%
- HPLC peak RT 4.37, RRT 0.28 ([1]; 27 hr): 7.93
- Z-form, RT 15.13, RRT 1.00 ([1]; 27 hr): 89.05
- E-form, RT 14.58, RRT 0.96 ([1]; 43 hr): 5.33%
- HPLC peak RT 13.84, RRT 0.91 ([1]; 43 hr): 0.04%
- HPLC peak RT 20.32, RRT 1.34 ([1]; 43 hr): 0.13%
- HPLC peak RT 20.51, RRT 1.35 ([1]; 43 hr): 0.05%
- HPLC peak RT 21.68, RRT 1.43 ([1]; 43 hr): 0.13%
- HPLC peak RT 22.88, RRT 1.51 ([1]; 43 hr): 0.05%
- HPLC peak RT 27.15, RRT 1.79 ([1]; 43 hr): 0.04%
- HPLC peak RT 27.21, RRT 1.80 ([1]; 43 hr): 0.05%
- HPLC peak RT 27.45, RRT 1.81 ([1]; 43 hr): 0.15%
- HPLC peak RT 27.88, RRT 1.84 ([1]; 43 hr): 0.04%
- HPLC peak RT 4.37, RRT 0.28 ([1]; 43 hr): 12.64
- Z-form, RT 15.13, RRT 1.00 ([1]; 43 hr): 80.36
- E-form, RT 14.58, RRT 0.96 ([1]; T0): 0.3%
- HPLC peak RT 13.84, RRT 0.91 ([1]; T0): 0.04%
- HPLC peak RT 20.32, RRT 1.34 ([1]; T0): 0.04%
- HPLC peak RT 20.51, RRT 1.35 ([1]; T0): 0.12%
- HPLC peak RT 21.68, RRT 1.43 ([1]; T0): 0.15%
- HPLC peak RT 22.88, RRT 1.51 ([1]; T0): 0.03%
- HPLC peak RT 27.15, RRT 1.79 ([1]; T0): 0.03%
- HPLC peak RT 27.21, RRT 1.80 ([1]; T0): 0.05%
- HPLC peak RT 27.45, RRT 1.81 ([1]; T0): 0.17%
- HPLC peak RT 27.88, RRT 1.84 ([1]; T0): 0.04%
- HPLC peak RT 4.37, RRT 0.28 ([1]; T0): 0.05
- Z-form, RT 15.13, RRT 1.00 ([1]; T0): 98.67
- E-form, RT 15.40, RRT 0.95 ([1]; 4 hr): 0.78%
- HPLC peak RT 3.14, RRT 0.19 ([1]; 4 hr): 0.15%
- HPLC peak RT 4.25, RRT 0.26 ([1]; 4 hr): 0.57
- HPLC peak RT 14.68, RRT 0.90 ([1]; 4 hr): 0.04%
- HPLC peak RT 17.69, RRT 1.09 ([1]; 4 hr): 0.08%
- HPLC peak RT 20.47, RRT 1.26 ([1]; 4 hr): 0.04
- HPLC peak RT 20.80, RRT 1.28 ([1]; 4 hr): 0.15%
- HPLC peak RT 21.56, RRT 1.33 ([1]; 4 hr): 0.08%
- HPLC peak RT 21.83, RRT 1.34 ([1]; 4 hr): 0.1%
- HPLC peak RT 22.68, RRT 1.39 ([1]; 4 hr): 0.1%
- HPLC peak RT 22.76, RRT 1.40 ([1]; 4 hr): 0.08%
- Z-form, RT 16.25, RRT 1.00 ([1]; 4 hr): 97.28
- E-form, RT 15.40, RRT 0.95 ([1]; 20 hr): 1.03%
- HPLC peak RT 3.14, RRT 0.19 ([1]; 20 hr): 0.11%
- HPLC peak RT 4.25, RRT 0.26 ([1]; 20 hr): 2.00
- HPLC peak RT 14.68, RRT 0.90 ([1]; 20 hr): 0.04%
- HPLC peak RT 17.69, RRT 1.09 ([1]; 20 hr): 0.08%
- HPLC peak RT 20.47, RRT 1.26 ([1]; 20 hr): 0.05
- HPLC peak RT 20.80, RRT 1.28 ([1]; 20 hr): 0.21%
- HPLC peak RT 21.56, RRT 1.33 ([1]; 20 hr): 0.08%
- HPLC peak RT 21.83, RRT 1.34 ([1]; 20 hr): 0.08%
- HPLC peak RT 22.68, RRT 1.39 ([1]; 20 hr): 0.09%
- HPLC peak RT 22.76, RRT 1.40 ([1]; 20 hr): 0.01%
- Z-form, RT 16.25, RRT 1.00 ([1]; 20 hr): 95.35
- E-form, RT 15.40, RRT 0.95 ([1]; 24 hr): 1.14%
- HPLC peak RT 3.14, RRT 0.19 ([1]; 24 hr): 0.13%
- HPLC peak RT 4.25, RRT 0.26 ([1]; 24 hr): 2.81
- HPLC peak RT 14.68, RRT 0.90 ([1]; 24 hr): 0.04%
- HPLC peak RT 17.69, RRT 1.09 ([1]; 24 hr): 0.09%
- HPLC peak RT 20.47, RRT 1.26 ([1]; 24 hr): 0.05
- HPLC peak RT 20.80, RRT 1.28 ([1]; 24 hr): 0.17%
- HPLC peak RT 21.56, RRT 1.33 ([1]; 24 hr): 0.09%
- HPLC peak RT 21.83, RRT 1.34 ([1]; 24 hr): 0.01%
- HPLC peak RT 22.68, RRT 1.39 ([1]; 24 hr): 0.07%
- HPLC peak RT 22.76, RRT 1.40 ([1]; 24 hr): 0.02%
- Z-form, RT 16.25, RRT 1.00 ([1]; 24 hr): 94.73
- E-form, RT 15.40, RRT 0.95 ([1]; 28 hr): 1.26%
- HPLC peak RT 3.14, RRT 0.19 ([1]; 28 hr): 0.11%
- HPLC peak RT 4.25, RRT 0.26 ([1]; 28 hr): 3.14
- HPLC peak RT 14.68, RRT 0.90 ([1]; 28 hr): 0.04%
- HPLC peak RT 17.69, RRT 1.09 ([1]; 28 hr): 0.1%
- HPLC peak RT 20.47, RRT 1.26 ([1]; 28 hr): 0.06
- HPLC peak RT 20.80, RRT 1.28 ([1]; 28 hr): 0.19%
- HPLC peak RT 21.56, RRT 1.33 ([1]; 28 hr): 0.09%
- HPLC peak RT 21.83, RRT 1.34 ([1]; 28 hr): 0.01%
- HPLC peak RT 22.68, RRT 1.39 ([1]; 28 hr): 0.09%
- HPLC peak RT 22.76, RRT 1.40 ([1]; 28 hr): 0.02%
- Z-form, RT 16.25, RRT 1.00 ([1]; 28 hr): 93.99
- E-form, RT 15.40, RRT 0.95 ([1]; T0): 0.65%
- HPLC peak RT 3.14, RRT 0.19 ([1]; T0): 0.16%
- HPLC peak RT 4.25, RRT 0.26 ([1]; T0): 0.12
- HPLC peak RT 14.68, RRT 0.90 ([1]; T0): 0.04%
- HPLC peak RT 17.69, RRT 1.09 ([1]; T0): 0.08%
- HPLC peak RT 20.47, RRT 1.26 ([1]; T0): 0.03
- HPLC peak RT 20.80, RRT 1.28 ([1]; T0): 0.07%
- HPLC peak RT 21.56, RRT 1.33 ([1]; T0): 0.08%
- HPLC peak RT 21.83, RRT 1.34 ([1]; T0): 0.07%
- HPLC peak RT 22.68, RRT 1.39 ([1]; T0): 0.03%
- HPLC peak RT 22.76, RRT 1.40 ([1]; T0): 0.06%
- Z-form, RT 16.25, RRT 1.00 ([1]; T0): 98.28
- Stability of (Z)-endoxifen produced from methods using acetone recrystallization only ([1]; summary of TABLES 2 and 3): unstable
SMILES: CC/C(=C(\c1ccc(O)cc1)c1ccc(OCCNC)cc1)c1ccccc1 [(Z)-endoxifen, (Z)-4-(1-(4-(2-(methylamino)ethoxy)phenyl)-2-phenylbut-1-enyl)phenol]
- Polymorphic form recovered (XRPD) [2]: majority of slurries yielded high purity Form I, some of the slurries yielded Form I with traces of Form IV or Form VII, and six slurries yielded primarily Form IV

— patent US20250066286A1, “COMPOSITIONS OF (Z)-ENDOXIFEN AND METHODS OF ENRICHMENT THEREOF” (Atossa Therapeutics, Inc., priority 2022, published 2025)
